# According to patent US20060093617A1, “Peptides for inducing a CTL and/or HTL response to hepatitis C virus” (Innogenetics, N.V., priority 2004, published 2006):
# Where a SMILES comes first, the peptide text is derived from it.
# What was measured:
# HLA-Cw07 = target: T1, HLA-Cw07 (Homo sapiens, UniProt P10321); assay: HLA class I competition cell-based binding assay
# T1 construct: endogenous in cells
# HLA-A03 = target: T2, HLA-A03 (Homo sapiens, UniProt P04439); assay: Competition binding assay using soluble HLA class I; settings: HLA-A1101 section; read-out: binds A0301 (asterisk in Ki column)
# T2 construct: endogenous in cells
# DRB1*0301 = target: T3, DRB1*0301 (Homo sapiens, UniProt P01903+P01911, A100K/A102G/A103R/A169T/F55Y/I96L/K41T/L162R/M171V/P40S/Q125H/Q178H/Q39Y/R42S/S66N/T106N/T262R/W38E/Y61H); assay: Competition binding assay using soluble HLA class II
# T3 construct: endogenous in cells; HLA-DR was extracted from cell lysates on an LB3.1 antibody column
# B*0702 = target: T4, B*0702 (Homo sapiens, UniProt P01889); assay: Competition binding assay using soluble HLA class I
# T4 construct: endogenous in cells
# B*3501 = B*3501 (Homo sapiens, UniProt P01889, A329T/A93T/A95T/C349S/D201E/D98Y/E176V/E187L/E204Q/E69T/I218V/K202T/L119I/Q94N/R155S/R180L/S121R/S35A/S48A/T118I/V127L/V306I/V36M/Y140S/Y91F); assay: as above; settings: for Ki: HLA-B3501 section
# DRB1*0101 = target: T5, DRB1*0101 (Homo sapiens, UniProt P01903+P01911, A100R/D57E/F55L/F60I/F76Y/I96L/L162R/M171V/P40L/Q125E/R42F/V115G/Y59C); assay: Competition binding assay using soluble HLA class II
# T5 construct: endogenous in cells; host or cells: cell lysate
# HLA-Cw06 = target: T6, HLA-Cw06 (Homo sapiens, UniProt P10321, A176E/A330V/C350S/L171W/L180W/L218V/M285V/M309V/M331V/N104K/P208H/Q277E/Q291P/R121W/R243W/S101N/S123Y/S297R/T329A/T363A/V319A/V328M); assay: HLA class I competition cell-based binding assay
# T6 construct: endogenous in cells
# HLA-A02 = HLA-A02 (Homo sapiens, UniProt P04439, D140Y/D185E/D98H/E176V/E277Q/G131W/G231S/I119V/I121R/I166T/I218V/L300P/L318F/N151K/N90K/P208A/P217A/Q86G/Q94H/R138H/R169H/T345S); assay: Competition binding assay using soluble HLA class I
smiles,measurement,setting,value
CC(C)C[C@H](NC(=O)[C@@H](NC(=O)CNC(=O)[C@H](CO)NC(=O)[C@H](C)NC(=O)[C@H](CCCNC(=N)N)NC(=O)[C@H](CS)NC(=O)[C@H](CCCNC(=N)N)NC(=O)[C@H](CCCNC(=N)N)NC(=O)[C@@H](N)Cc1ccc(O)cc1)C(C)C)C(=O)O (H-YRRCRASGVL-OH),Ki,HLA-Cw07,83 nM
CC[C@H](C)[C@H](NC(=O)[C@@H]1CCCN1C(=O)[C@H](CCC(N)=O)NC(=O)[C@@H](N)CCCNC(=N)N)C(=O)N1CCC[C@H]1C(=O)N[C@@H](CCCCN)C(=O)N[C@@H](C)C(=O)N[C@@H](CCCNC(=N)N)C(=O)N[C@@H](CCCNC(=N)N)C(=O)O (H-RQPIPKARR-OH),Ki,HLA-A03,< 1000 nM
CSCC[C@H](NC(=O)[C@H](CC(C)C)NC(=O)[C@H](C)NC(=O)[C@H](CC(=O)O)NC(=O)[C@@H](NC(=O)[C@H](C)NC(=O)[C@@H](NC(=O)[C@@H](NC(=O)[C@@H](NC(=O)[C@@H](N)C(C)C)C(C)C)C(C)C)C(C)C)[C@@H](C)O)C(=O)N[C@H](C(=O)NCC(=O)N[C@@H](Cc1ccc(O)cc1)C(=O)N[C@H](C(=O)NCC(=O)O)[C@@H](C)O)[C@@H](C)O,IC50,DRB1*0301,93 nM
CC(C)C[C@H](NC(=O)[C@H](CCCNC(=N)N)NC(=O)[C@@H](NC(=O)[C@H](CO)NC(=O)[C@@H](NC(=O)[C@H](CCC(=O)O)NC(=O)[C@H](C)NC(=O)[C@@H]1CCCN1C(=O)[C@@H](N)[C@@H](C)O)[C@@H](C)O)C(C)C)C(=O)O,IC50,B*0702,375 nM
same,Ki,"B*0702; Ki (nM), HLA-B0702 section",375 nM
same,Ki,"B*0702; binds B0702 with Ki < 1000 nM (asterisk), asterisk in the HLA-B3501 section",< 1000 nM
same,IC50,"B*3501; Table 18, HLA-B7 binding peptides",1640 nM
CSCC[C@H](NC(=O)[C@H](CCCNC(=N)N)NC(=O)[C@H](Cc1c[nH]cn1)NC(=O)CN)C(=O)N[C@@H](C)C(=O)N[C@@H](Cc1c[nH]c2ccccc12)C(=O)N[C@@H](CC(=O)O)C(=O)N[C@@H](CCSC)C(=O)N[C@@H](CCSC)C(=O)N[C@@H](CCSC)C(=O)N[C@@H](CC(N)=O)C(=O)N[C@@H](Cc1c[nH]c2ccccc12)C(=O)N[C@@H](CO)C(=O)N1CCC[C@H]1C(=O)N[C@H](C(=O)O)[C@@H](C)O,IC50,DRB1*0101,183 nM
same,IC50,DRB1*0301,919 nM
C[C@H](NC(=O)[C@H](CCC(=O)O)NC(=O)[C@@H]1CCCN1C(=O)[C@H](Cc1c[nH]cn1)NC(=O)[C@H](CCCCN)NC(=O)[C@H](CCCNC(=N)N)NC(=O)[C@@H](N)Cc1ccccc1)C(=O)N[C@H](C(=O)N[C@@H](Cc1ccc(O)cc1)C(=O)O)[C@@H](C)O (H-FRKHPEATY-OH; N-terminus and C-terminus assumed),Ki,HLA-Cw07,0.2 nM
CC[C@H](C)[C@H](NC(=O)[C@H](CC(N)=O)NC(=O)[C@H](CCC(N)=O)NC(=O)[C@@H](N)Cc1c[nH]cn1)C(=O)N[C@H](C(=O)N[C@@H](CC(=O)O)C(=O)N[C@H](C(=O)N[C@@H](CCC(N)=O)C(=O)N[C@@H](Cc1ccc(O)cc1)C(=O)O)C(C)C)C(C)C,Ki,HLA-Cw07,14200 nM
CC[C@H](C)[C@H](NC(=O)[C@@H]1CCCN1C(=O)[C@@H](NC(=O)[C@H](C)NC(=O)[C@H](CCCCN)NC(=O)CNC(=O)[C@H](Cc1ccc(O)cc1)NC(=O)[C@@H](N)Cc1ccccc1)[C@@H](C)CC)C(=O)N[C@@H](CCC(=O)O)C(=O)N[C@H](C(=O)O)C(C)C,Ki,HLA-Cw06,5690 nM
same,Ki,HLA-Cw07,31 nM
CC(C)C[C@H](NC(=O)[C@H](CC(C)C)NC(=O)[C@@H]1CCCN1C(=O)[C@@H](NC(=O)[C@@H]1CCCN1C(=O)CNC(=O)[C@H](Cc1c[nH]cn1)NC(=O)[C@@H](N)CC(C)C)[C@@H](C)O)C(=O)N[C@@H](Cc1ccc(O)cc1)C(=O)O,Ki,HLA-Cw07,31 nM
CC[C@H](C)[C@H](NC(=O)[C@@H]1CCCN1C(=O)[C@H](C)NC(=O)[C@H](CC(C)C)NC(=O)[C@H](CC(C)C)NC(=O)[C@@H](N)CCCNC(=N)N)C(=O)N[C@H](C(=O)N[C@@H](C)C(=O)N[C@@H](Cc1ccc(O)cc1)C(=O)O)[C@@H](C)O,Ki,HLA-Cw07,4820 nM
CC[C@H](C)[C@H](NC(=O)[C@@H](N)CC(N)=O)C(=O)N[C@H](C(=O)N[C@@H](CC(=O)O)C(=O)N[C@H](C(=O)N[C@@H](CCC(N)=O)C(=O)N[C@@H](Cc1ccc(O)cc1)C(=O)N[C@@H](CC(C)C)C(=O)N[C@@H](Cc1ccc(O)cc1)C(=O)O)C(C)C)C(C)C,Ki,HLA-Cw07,56 nM
CC(C)C[C@H](NC(=O)[C@H](Cc1ccccc1)NC(=O)[C@H](CCCCN)NC(=O)CNC(=O)[C@H](Cc1ccc(O)cc1)NC(=O)[C@@H](NC(=O)[C@H](CO)NC(=O)[C@H](Cc1ccc(O)cc1)NC(=O)[C@@H](N)[C@@H](C)O)[C@@H](C)O)C(=O)O,Ki,HLA-Cw06,4860 nM
same,Ki,HLA-Cw07,239 nM
CC(C)C[C@H](NC(=O)[C@H](C)NC(=O)CNC(=O)[C@H](C)NC(=O)[C@@H](NC(=O)CN)C(C)C)C(=O)N[C@H](C(=O)N[C@@H](C)C(=O)N[C@@H](Cc1ccccc1)C(=O)O)C(C)C (H-GVAGALVAF-OH; N-terminus and C-terminus assumed),Ki,HLA-Cw07,6160 nM
CC[C@H](C)[C@H](NC(=O)[C@H](CC(C)C)NC(=O)[C@H](CCCNC(=N)N)NC(=O)[C@H](C)NC(=O)[C@@H]1CCCN1C(=O)[C@H](CCCCN)NC(=O)[C@H](CCCNC(=N)N)NC(=O)CN)C(=O)N[C@H](C(=O)N[C@@H](Cc1ccccc1)C(=O)O)C(C)C (H-GRKPARLIVF-OH),Ki,HLA-Cw06,8960 nM
same,Ki,HLA-Cw07,753 nM
CC[C@H](C)[C@H](NC(=O)[C@H](CCC(N)=O)NC(=O)CNC(=O)CNC(=O)CNC(=O)[C@@H]1CCCN1C(=O)[C@@H](N)Cc1ccccc1)C(=O)N[C@H](C(=O)NCC(=O)O)C(C)C,Ki,B*3501,2600 nM
CSCC[C@H](NC(=O)CNC(=O)[C@H](CCC(=O)O)NC(=O)[C@H](CC(N)=O)NC(=O)CNC(=O)[C@H](Cc1ccc(O)cc1)NC(=O)[C@@H](N)CC(C)C)C(=O)NCC(=O)N[C@@H](Cc1c[nH]c2ccccc12)C(=O)N[C@@H](C)C(=O)O (H-LYGNEGMGWA-OH; N-terminus and C-terminus assumed),Ki,HLA-Cw07,5110 nM
CC[C@H](C)[C@H](N)C(=O)N[C@@H](CCCNC(=N)N)C(=O)N[C@@H](CO)C(=O)N[C@@H](CC(C)C)C(=O)N[C@H](C(=O)N[C@@H](CCC(=O)O)C(=O)N[C@@H](CCCNC(=N)N)C(=O)N[C@@H](CC(C)C)C(=O)N[C@@H](Cc1ccc(O)cc1)C(=O)O)[C@@H](C)O,Ki,HLA-Cw06,318 nM
same,Ki,HLA-Cw07,25 nM
N=C(N)NCCC[C@H](NC(=O)[C@H](CCC(N)=O)NC(=O)[C@@H](N)CC(=O)O)C(=O)N1CCC[C@H]1C(=O)N[C@@H](Cc1ccc(O)cc1)C(=O)N[C@@H](CS)C(=O)N[C@@H](Cc1c[nH]c2ccccc12)C(=O)N[C@@H](Cc1c[nH]cn1)C(=O)N[C@@H](Cc1ccc(O)cc1)C(=O)O (H-DQRPYCWHY-OH; N-terminus and C-terminus assumed),Ki,HLA-Cw07,710 nM
CC(C)C[C@H](NC(=O)[C@@H](NC(=O)[C@H](CCCNC(=N)N)NC(=O)[C@@H](NC(=O)CNC(=O)[C@H](Cc1c[nH]cn1)NC(=O)[C@H](C)NC(=O)[C@H](CC(C)C)NC(=O)[C@H](C)N)C(C)C)C(C)C)C(=O)O,Ki,HLA-Cw06,3310 nM
same,Ki,HLA-A02,627 nM
same,Ki,"B*0702; Ki (nM), HLA-B0702 section",7950 nM
CC(C)C[C@H](NC(=O)[C@H](CCCNC(=N)N)NC(=O)[C@@H]1CCCN1C(=O)CN)C(=O)NCC(=O)N[C@H](C(=O)N[C@@H](CCCNC(=N)N)C(=O)N[C@@H](C)C(=O)N[C@H](C(=O)N[C@@H](CCCNC(=N)N)C(=O)N[C@@H](CCCCN)C(=O)N[C@H](C(=O)N[C@@H](CO)C(=O)N[C@@H](CCC(=O)O)C(=O)N[C@@H](CCCNC(=N)N)C(=O)O)[C@@H](C)O)[C@@H](C)O)C(C)C (H-GPRLGVRATRKTSER-OH; N-terminus and C-terminus assumed),IC50,DRB1*0301,18900 nM
CSCC[C@H](N)C(=O)NCC(=O)N[C@@H](CO)C(=O)N[C@@H](CO)C(=O)N[C@@H](Cc1ccc(O)cc1)C(=O)NCC(=O)N[C@@H](Cc1ccccc1)C(=O)N[C@@H](CCC(N)=O)C(=O)N[C@@H](Cc1ccc(O)cc1)C(=O)O,Ki,B*3501,2610 nM
CC[C@H](C)[C@H](NC(=O)[C@H](Cc1ccc(O)cc1)NC(=O)[C@@H](N)CCCCN)C(=O)N[C@@H](CCSC)C(=O)N[C@@H](C)C(=O)N[C@@H](CS)C(=O)N[C@@H](CCSC)C(=O)N[C@@H](CO)C(=O)N[C@@H](C)C(=O)O,Ki,HLA-Cw07,7210 nM
CC[C@H](C)[C@H](NC(=O)[C@@H](NC(=O)[C@H](CO)NC(=O)[C@@H](NC(=O)[C@H](CC(=O)O)NC(=O)[C@H](CC(C)C)NC(=O)CNC(=O)[C@H](CCCNC(=N)N)NC(=O)[C@H](Cc1ccc(O)cc1)NC(=O)[C@@H](N)Cc1ccc(O)cc1)C(C)C)C(C)C)C(=O)O (H-YYRGLDVSVI-OH),Ki,HLA-Cw07,87 nM
CC(C)[C@H](NC(=O)[C@H](CCCNC(=N)N)NC(=O)[C@H](C)NC(=O)[C@H](C)NC(=O)[C@H](C)NC(=O)[C@H](CC(=O)O)NC(=O)[C@H](CO)NC(=O)[C@H](CCC(=O)O)NC(=O)[C@@H]1CCCN1C(=O)[C@@H](NC(=O)[C@H](Cc1ccc(O)cc1)NC(=O)[C@H](Cc1c[nH]cn1)NC(=O)[C@@H](NC(=O)[C@@H]1CCCN1)[C@@H](C)O)C(C)C)C(=O)N[C@H](C(=O)O)[C@@H](C)O,IC50,DRB1*0301,4950 nM
